Assay results taken from PubChem BioAssay (NCI).
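Interpolation was linear, between the two tested concentrations surrounding the appropriate level; five concentrations were tested over 48 hours in 96-well plates. TGI marks complete inhibition of growth.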

Legend:
Test in all cases: NCI anticancer screen, dose series, 48 h
A498 renal = test system: A498 renal
ACHN renal = test system: ACHN renal
BT-549 breast = test system: BT-549 breast
COLO 205 colon = test system: COLO 205 colon
EKVX NSCLC = test system: EKVX NSCLC
HCT-116 colon = test system: HCT-116 colon
HL-60(TB) leukemia = test system: HL-60(TB) leukemia
HOP-92 NSCLC = test system: HOP-92 NSCLC
MDA-MB-231 breast = test system: MDA-MB-231 breast
NCI/ADR-RES ovarian = test system: NCI/ADR-RES ovarian
OVCAR-3 ovarian = test system: OVCAR-3 ovarian
OVCAR-8 ovarian = test system: OVCAR-8 ovarian
PC-3 prostate = test system: PC-3 prostate
SF-268 CNS = test system: SF-268 CNS
SNB-75 CNS = test system: SNB-75 CNS
SR leukemia = test system: SR leukemia
SW-620 colon = test system: SW-620 colon
T-47D breast = test system: T-47D breast
UACC-257 melanoma = test system: UACC-257 melanoma
UO-31 renal = test system: UO-31 renal

SMILES | TGI (A498 renal) [µM] | TGI (ACHN renal) [µM] | TGI (BT-549 breast) [µM] | TGI (COLO 205 colon) [µM] | TGI (EKVX NSCLC) [µM] | TGI (HCT-116 colon) [µM] | TGI (HL-60(TB) leukemia) [µM] | TGI (HOP-92 NSCLC) [µM] | TGI (MDA-MB-231 breast) [µM] | TGI (NCI/ADR-RES ovarian) [µM] | TGI (OVCAR-3 ovarian) [µM] | TGI (OVCAR-8 ovarian) [µM] | TGI (PC-3 prostate) [µM] | TGI (SF-268 CNS) [µM] | TGI (SNB-75 CNS) [µM] | TGI (SR leukemia) [µM] | TGI (SW-620 colon) [µM] | TGI (T-47D breast) [µM] | TGI (UACC-257 melanoma) [µM] | TGI (UO-31 renal) [µM]
O=C1C=C(C2=C(C3=CC(=O)c4ccccc4C3=O)C(=O)c3ccccc3C2=O)C(=O)c2ccccc21 | 36.8 | 37.9 | 28.9 | 17.3 | 33.8 | 20.5 | 3.68 | 18 | 13.8 | 36.4 | 12.9 | 19.1 | 47.6 | 33.8 | 35.3 | > 100 | 20.5 | 29.5 | 25.4 | 11.1
O=[N+]([O-])C(=C/c1cccc2ccccc12)/C(=C\c1cccc2ccccc12)[N+](=O)[O-] | 33.5 | 4.21 | 4.26 | > 21.7 | 11.6 | 7.2 |  | 4.25 | 5.14 | 5.79 | 15.5 | 7.29 | > 24.3 | 7.67 | 21.8 | 9.03 | 4.5 | 10.6 | 5.44 | 3.66
COC1=C2CC(C)CC(OC)C(OC(=O)CCCN)C(C)/C=C(\C)C(OC(N)=O)C(OC)/C=C\C=C(/C)C(=O)NC(=CC1=O)C2=O (stereo not given) | 30.6 | 17.8 | 15.8 | 9.48 | 26.6 | 15.9 | 1.65 | 14.6 | 36.1 | 43.7 | 16.8 | 21.6 | 22.4 | 24.6 | 36.3 | 21.5 | 17.7 | 4.65 | 17.7 | 23.1
CCOC(=O)/C=C\C(C#N)(C#N)N=Cc1ccsc1 | 33.5 | 9.26 | 12.1 | 3.4 | 30.6 | 4.72 | 5.14 | 4.52 | 30.9 | 15.3 | 6.42 | 14.6 | 22.7 | 22 | 27.8 | 18.1 | 4.11 | 4.49 | 20.9 | 5.71
C/C(=N\NC(=S)Nc1ccc([N+](=O)[O-])cc1)c1nc2ncccc2[nH]1 | 8.76 |  | 2.35 | 23.1 | 3.2 | 6.12 | > 100 | 18 | > 100 | 5.22 | 17.7 | 1.71 | 16.9 | > 100 | 4.1 | > 100 | > 100 | 22.9 | 2.96 | 1.35
OC1COC(OCc2ccccc2)C(O)C1O (stereo not given) | > 100 | > 100 | > 100 | > 100 | > 100 | > 100 | > 100 | > 100 | > 100 | > 100 | > 100 | > 100 | > 100 | > 100 |  | > 100 | > 100 | > 100 | > 100 | > 100
O=C(O)CC12CC3CC(CC(O)(C3)C1)C2 | > 100 | > 100 | > 100 | > 100 | > 100 | > 100 |  | > 100 | > 100 | > 100 | > 100 | > 100 | > 100 | 82.7 | > 100 | > 100 | > 100 | > 100 | > 100 | > 100
Cc1ccc(S(=O)(=O)N2CCN(S(=O)(=O)c3ccc(C)cc3)CCN(S(=O)(=O)c3ccc(C)cc3)Cc3cc(Br)c(Br)cc3CN(S(=O)(=O)c3ccc(C)cc3)CC2)cc1 | > 100 | > 100 | > 100 | > 100 | > 100 | > 100 | > 100 | 92.4 | 71.1 | > 100 | > 100 | > 100 | > 100 | > 100 | > 100 | > 100 | > 100 | > 100 | > 100 | > 100
COc1ccc(NC/C=C/C(=C/COC(C)=O)OC(C)=O)cc1 | 3.53 | 3.29 | 3.16 | 3.4 | 4.99 | 3.55 |  | 3.87 | 3.37 | 7.04 | 4.28 | 16.1 | 5.98 | 6.52 | 20.5 | 2.71 | 3.49 | 5.45 | 5.04 | 25
